The values below come from patent US4748161A, “Triterpenyl esters of organic acids and hypolipidemic agents composed of them” (Amano Pharmaceutical Co., Ltd., priority 1984, dated 1988).

Data set [1] is described as follows: Body weight of rats in method B. Set-up: species or system male Wistar strain rats. The following applies: rat, in vivo. As to the method: (§1) Male Wistar strain rats (100±1 g, each 8 rats were formed into a group except that the control group fed with a hyperlipidemic diet was formed of 16 rats) were used as test animals. A powdery diet (CE-2, supplied by Clea Japan, Inc.) was used as ordinary diet. The hyperlipidemic diet was prepared by fortifying the ordinary diet with cholesterol (1%) and cholic acid (0.5%). Each test compound (1%) for administration was admixed with the hyperlipidemic diet. Each two rats were kept in a cage and given the prescribed diet and water ad libitum. Thus the rats were fed for 4 weeks at a constant temperature of 23±1° C. and a constant R.H. of 55±5%. Finally, the rats were fasted from food except water for 16 hours (from 4 p.m. of the 28th test day to 8 a.m. of the 29th test day), and under anesthesia with pentbarbital sodium (tradename: Nembutal), blood was taken from each rat through the descending abdominal arota. Then, TC, HDL-C, TG, PL, and LPO in the serum were measured in the following manner.

Data set [2] relates to serum lipids and serum lipid hydroperoxide. The data set is described as follows: Pharmacological test method B for anti-hyperlipidemic activity (serum lipids, 4 weeks feeding). It is filed as in vivo, male Wistar strain rats. Further details: AI Diff.: unit not given here. The following applies: for AI [(TC - HDL-C)/(HDL-C)] / HDL-C in serum / LPO in serum / PL in serum / TC in serum / TG in serum: 1% in hyperlipidemic diet, 4 weeks; for change in vivo at 1 % in diet: Rattus norvegicus, po, 672 h; for change in vivo at 1 % in diet / AI Diff. / HDL-C Diff. / LPO Diff. / PL Diff. / TC % of diff. / TC Diff. / TG Diff.: versus control group; for HDL-C rise compared with normal diet group: versus normal diet group. As to the method:
Pharmacological test method B for anti-hyperlipidemic acitivity (the term "method B" was used in the present specification)
as §1
A TC kit-K (supplied by Nippon Shoji Kaisha, Ltd.) was used. The principle of this determination is as follows: The ester of cholesterol in the serum is hydrolyzed with cholesterol-ester hydrolase into free cholesterol and fatty acids. All the free cholesterol is oxidized with cholesterol oxydase to form Δ^4 -cholestenone and hydrogen peroxide. Phenol and 4-aminoantipyrin are oxidatively condensed together by the formed hydrogen peroxide and peroxydase. The produced red quinone coloring matter is measured by colorimetry for absorbance at 500 nm using a spectrophotometer, thereby determining the TC:
The color-developing liquid (3.0 ml) is well mixed with the sample serum (0.02 ml). The mixture once heated at 37° C. for 15 minutes, is measured for absorbance at 500 nm with a spectrophotometer. The found absorbance is denoted by EA. On the other hand, the color-developing liquid (3.0 ml) is well mixed with the standard solution. The mixture is treated and measured for absorbance at 500 nm in the same manner as the above. This found absorbance is denoted by ES. Both EA and ES are determined with reference to the value of the blank test conducted using the color-developing liquid (3.0 ml) alone. [formula]
An HDL-C kit-N (supplied by Nippon Shoji Kaisha, Ltd.) was used. […] (VLDL) and lo density lipoprotein (LDL) in the serum is precipitated by the action of heparin. The precipitate is separated by centrifugation. High density lipoprotein (HDL) is dissolved in the separated supernatant. Esters of cholesterol in this fraction is hydrolyzed with cholesterol-ester hydrolase into free cholesterol and fatty acids. All the free cholesterol is oxidized with cholesterol oxydase to form Δ^4 -cholestenone and hydrogen peroxide. Phenol and 4-aminoantipyrine are oxidatively condensed together by the formed hydrogen peroxide and peroxydase. The produced red quinone coloring matter is measured by colorimetry for absorbance at 500 nm using a spectrophotometer, thereby determining the HDL-C.
A PL kit-K (supplied by Nippon Shoji Kaisha, Ltd.) was used for the determination. Lecithin, sphingomyelin, and lysolecithin are decomposed by phospholipase D into choline and phosphatidic acid, N-acylsphingosyl phosphate, or lysophosphatidic acid, respectively. The resulting choline is quantitatively decomposed by choline oxydase into hydrogen peroxide and betaine. With this hydrogen peroxide, and aid of peroxydase, phenol and 4-aminoantipyrin are condensed into red quinone pigment, then the absorbance at 500 nm of which is measured with a spectrophotometer, thereby determining the PL. […]

Read-outs that look alike come from different tables or passages of the source.

With `COc1cc(C=C(C)C(=O)OC2CCC34CC35CCC3(C)C(C(C)CCC(C)=C(C)C)CCC3(C)C5CCC4C2(C)C)ccc1O` (stereo not drawn) [Example 116, cyclobranyl ester of 4-hydroxy-3-methoxy-α-methylcinnamic acid], in data set [1], the “Body weight during feed period, 1st day” value worked out at 106 ± 5.9 g; the “Body weight during feed period, 8th day” value is 146 ± 10.0 g; the “Body weight during feed period, 15th day” value is reported as 193 ± 17.5 g; the “Body weight during feed period, 22nd day” value was found to be 244 ± 15.8 g. For the same molecule, in data set [1], the “Body weight during feed period, 28th day” value is reported as 273 ± 20.4 g and the “Body weight just before blood sampling, 29th day” value is 260 ± 19.0 g. In data set [2], the “AI [(TC - HDL-C)/(HDL-C)]” value is on record as 1.282, the HDL-C in serum came to 61.4 mg/dL, the LPO in serum came to 2.11 nmol/mL and the PL in serum worked out at 97.4 mg/dL. In data set [2], the TC in serum was found to be 140.1 mg/dL, the TG in serum came out at 54.0 mg/dL, the “AI Diff.” value is -20.48 and the “HDL-C Diff.” value is reported as “+47.9 mg/dl”. In addition, in data set [2], the “LPO Diff.” value was -0.71 nmol/mL, the “PL Diff.” value is -42.7 mg/dL, the “TC % of diff.” value is given as -54.4% and the “TC Diff.” value was -167.2 mg/dL. Further, in data set [2], the “TG Diff.” value was -6.1 mg/dL and the “HDL-C rise compared with normal diet group” value is listed as “remarkable rises”. In data set [2] (read-out: AI % of diff.), the change in vivo at 1 % in diet is -94.1%. For the same molecule, in data set [2] (read-out: HDL-C % of diff.), the change in vivo at 1 % in diet came out at 355%. In addition, the change in vivo at 1 % in diet in data set [2] (read-out: LPO % of diff.) is -25.2%. The change in vivo at 1 % in diet in data set [2] (read-out: PL % of diff.) is -30.5%. For the same molecule, the change in vivo at 1 % in diet in data set [2] (read-out: TG % of diff.) is -10.8%.
As for `CC(=Cc1cccc(N)c1)C(=O)OC1CCC23CC24CCC2(C)C(C(C)CCC(C)=C(C)C)CCC2(C)C4CCC3C1(C)C` (stereo not drawn) [Example 212, Cyclobranyl ester of m-amino-α-methylcinnamic acid], in data set [1], the “Body weight during feed period, 1st day” value was found to be 104 ± 3.3 g; the “Body weight during feed period, 8th day” value is 143 ± 9.2 g; the “Body weight during feed period, 15th day” value was 190 ± 18.6 g; the “Body weight during feed period, 22nd day” value was 239 ± 15.8 g. Also, in data set [1], the “Body weight during feed period, 28th day” value was found to be 268 ± 21.4 g and the “Body weight just before blood sampling, 29th day” value is given as 257 ± 19.0 g. Further, in data set [2], the “AI [(TC - HDL-C)/(HDL-C)]” value is 4.242, the HDL-C in serum came out at 37.2 mg/dL, the LPO in serum stood at 2.01 nmol/mL and the PL in serum was found to be 112.9 mg/dL. Besides, in data set [2], the TC in serum was 195.0 mg/dL and the TG in serum amounted to 59.7 mg/dL.
With `CCC(=Cc1ccc(O)c(OC)c1)C(=O)OC1CCC23CC24CCC2(C)C(C(C)CCC=C(C)C)CCC2(C)C4CCC3C1(C)C` (stereo not drawn) [Example 120, cycloartenyl ester of 4-hydroxy-3-methoxy-α-ethylcinnamic acid], in data set [1], the “Body weight during feed period, 1st day” value came out at 105 ± 3.2 g; the “Body weight during feed period, 8th day” value is 144 ± 9.4 g; the “Body weight during feed period, 15th day” value worked out at 191 ± 18.2 g; the “Body weight during feed period, 22nd day” value is given as 242 ± 15.7 g. For the same molecule, in data set [1], the “Body weight during feed period, 28th day” value is 272 ± 20.1 g and the “Body weight just before blood sampling, 29th day” value is on record as 258 ± 23.0 g. In addition, in data set [2], the “AI [(TC - HDL-C)/(HDL-C)]” value was determined as 7.260, the HDL-C in serum was determined as 24.6 mg/dL, the LPO in serum was found to be 2.06 nmol/mL and the PL in serum worked out at 105.3 mg/dL. Besides, in data set [2], the TC in serum came out at 203.2 mg/dL, the TG in serum stood at 53.0 mg/dL, the “AI Diff.” value is recorded as -14.5 and the “HDL-C Diff.” value is “+11.1 mg/dl”. In addition, in data set [2], the “LPO Diff.” value was -0.76 nmol/mL, the “PL Diff.” value is -34.8 mg/dL, the “TC % of diff.” value is listed as -33.9% and the “TC Diff.” value is -104.1 mg/dL. Also, the “TG Diff.” value in data set [2] was -3.5 mg/dL. Further, in data set [2] (read-out: AI % of diff.), the change in vivo at 1 % in diet is -66.6%. The change in vivo at 1 % in diet in data set [2] (read-out: HDL-C % of diff.) came to 82.2%. The change in vivo at 1 % in diet in data set [2] (read-out: LPO % of diff.) was -27%. Moreover, the change in vivo at 1 % in diet in data set [2] (read-out: PL % of diff.) is -24.8%. Moreover, in data set [2] (read-out: TG % of diff.), the change in vivo at 1 % in diet was -6.2%.
Turning to `COc1cc(C=C(C)C(=O)OC2CCC34CC35CCC3(C)C(C(C)CCC=C(C)C)CCC3(C)C5CCC4C2(C)C)ccc1O` (stereo not drawn) [Example 114, cycloartenyl ester of 4-hydroxy-3-methoxy-α-methylcinnamic acid], in data set [1], the “Body weight during feed period, 1st day” value came to 105 ± 3.3 g; the “Body weight during feed period, 8th day” value worked out at 145 ± 9.5 g; the “Body weight during feed period, 15th day” value turned out to be 194 ± 18.0 g; the “Body weight during feed period, 22nd day” value is reported as 247 ± 16.6 g. For the same molecule, in data set [1], the “Body weight during feed period, 28th day” value is given as 277 ± 14.9 g and the “Body weight just before blood sampling, 29th day” value was 265 ± 14.5 g. In addition, in data set [2], the “AI [(TC - HDL-C)/(HDL-C)]” value is given as 4.711, the HDL-C in serum was found to be 24.2 mg/dL, the LPO in serum was 2.04 nmol/mL and the PL in serum was 96.7 mg/dL. Also, in data set [2], the TC in serum was 138.2 mg/dL, the TG in serum came to 39.0 mg/dL, the “AI Diff.” value is reported as -17.05 and the “HDL-C Diff.” value is given as “+10.7 mg/dl”. In data set [2], the “LPO Diff.” value is -0.78 nmol/mL, the “PL Diff.” value was -43.4 mg/dL, the “TC % of diff.” value is listed as -55.0% and the “TC Diff.” value is -169.1 mg/dL. Moreover, the “TG Diff.” value in data set [2] is -17.5 mg/dL. Also, in data set [2] (read-out: AI % of diff.), the change in vivo at 1 % in diet is -78.4%. The change in vivo at 1 % in diet in data set [2] (read-out: HDL-C % of diff.) worked out at 79.3%. The change in vivo at 1 % in diet in data set [2] (read-out: LPO % of diff.) is -27.7%. The change in vivo at 1 % in diet in data set [2] (read-out: PL % of diff.) is -31%. Also, in data set [2] (read-out: TG % of diff.), the change in vivo at 1 % in diet was -31%.
As for `COc1cc(C=CC(=O)OC2CCC34CC35CCC3(C)C(C(C)CCC=C(C)C)CCC3(C)C5CCC4C2(C)C)ccc1N` (centres unmarked) [Example 177, Cycloartenyl ester of 4-amino-3-methoxycinnamic acid], in data set [1], the “Body weight during feed period, 1st day” value is reported as 104 ± 3.9 g; the “Body weight during feed period, 8th day” value was 142 ± 9.6 g; the “Body weight during feed period, 15th day” value worked out at 187 ± 12.8 g; the “Body weight during feed period, 22nd day” value is recorded as 238 ± 21.2 g. For the same molecule, in data set [1], the “Body weight during feed period, 28th day” value is 267 ± 25.2 g and the “Body weight just before blood sampling, 29th day” value was 256 ± 27.1 g. In addition, in data set [2], the “AI [(TC - HDL-C)/(HDL-C)]” value amounted to 6.554, the HDL-C in serum was 32.5 mg/dL, the LPO in serum came out at 2.29 nmol/mL and the PL in serum amounted to 125.8 mg/dL. In data set [2], this molecule displayed a TC in serum of 245.5 mg/dL and a TG in serum of 63.1 mg/dL.
On to `COc1cc(C(=O)OC2CCC34CC35CCC3(C)C(C(C)CCC=C(C)C)CCC3(C)C5CCC4C2(C)C)ccc1N` (centres unmarked) [Example 167, cycloartenyl ester of 4-amino-3-methoxy benzoic acid], for which, in data set [1], the “Body weight during feed period, 1st day” value was 105 ± 3.4 g; the “Body weight during feed period, 8th day” value is given as 143 ± 10.4 g; the “Body weight during feed period, 15th day” value was determined as 191 ± 18.4 g; the “Body weight during feed period, 22nd day” value is listed as 241 ± 21.7 g. Also, in data set [1], the “Body weight during feed period, 28th day” value stood at 272 ± 20.8 g and the “Body weight just before blood sampling, 29th day” value was 259 ± 20.6 g. In data set [2], the “AI [(TC - HDL-C)/(HDL-C)]” value came to 2.405, the HDL-C in serum was found to be 79.6 mg/dL, the LPO in serum was determined as 2.28 nmol/mL and the PL in serum is 126.4 mg/dL. Besides, in data set [2], the TC in serum worked out at 271.0 mg/dL, the TG in serum stood at 67.1 mg/dL and the “HDL-C rise compared with normal diet group” value is on record as “remarkable rises”.
